{
  "source": "patent US10681909B2",
  "about": "“Herbicidal triazoles” (FMC Corporation, priority 2014, dated 2020)",
  "key": {"barnyardgrass [1]": {"system": "barnyardgrass", "assay": "Test A preemergence", "type": "in vivo, Echinochloa crus-galli", "conditions": "Echinochloa crus-galli, pre-emergence, 240 h, 0 to 100 scale (0 no effect, 100 complete control), read-out: Plant response rating, Barnyardgrass", "in_short": "(§1)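 Pre- and postemergence spray tests in a loam soil–sand mixture: seeded soil received a directed spray, while established seedlings 2–10 cm high at the one- to two-leaf stage were treated over the top. Compounds were carried in non-phytotoxic solvent with surfactant.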"}, "barnyardgrass [2]": {"system": "barnyardgrass", "assay": "Test A postemergence", "type": "in vivo, Echinochloa crus-galli", "conditions": "Echinochloa crus-galli, post-emergence, 240 h, 0 to 100 scale (0 no effect, 100 complete control), approx. 10 d, read-out: Plant response rating, Barnyardgrass", "in_short": "as §1"}, "crabgrass, large": {"system": "crabgrass, large", "assay": "Test C postemergence", "type": "in vivo, Digitaria sanguinalis", "in_short": "(§2)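 Preemergence: seeds sown in loam soil–sand blend and treated with test chemicals formulated in a non-phytotoxic solvent mixture containing a surfactant. Postemergence: plants grown in peat moss/vermiculite-based medium and sprayed with the same formulation at 2 to 18 cm height (1- to 4-leaf stage).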"}, "rice": {"system": "rice", "assay": "Test B flooded paddy test", "type": "in vivo, Oryza sativa", "conditions": "Oryza sativa, 360 h, 125 g ai/ha, applied to paddy water at 2-leaf stage, visual rating after 13 to 15 d, scale 0 (no effect) to 100 (complete control), read-out: Plant response rating, Rice, Flood", "in_short": "(§3)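 Pots were flooded to 3 cm above the soil at treatment, and compounds were applied directly into the paddy water. That depth was held throughout. After 13 to 15 d in a greenhouse, plants were rated visually against untreated controls.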"}, "morningglory": {"system": "morningglory", "assay": "Test C postemergence", "type": "in vivo, Ipomoea coccinea", "in_short": "as §2"}, "kochia": {"system": "kochia", "assay": "Test C postemergence", "type": "in vivo, Kochia scoparia", "in_short": "as §2"}, "johnsongrass": {"system": "johnsongrass", "assay": "Test C postemergence", "type": "in vivo, Sorghum halepense", "in_short": "as §2"}, "pigweed": {"system": "pigweed", "assay": "Test C postemergence", "type": "in vivo, Amaranthus retroflexus", "in_short": "as §2"}, "ragweed": {"system": "ragweed", "assay": "Test C postemergence", "type": "in vivo, Ambrosia elatior", "in_short": "as §2"}, "velvetleaf [3]": {"system": "velvetleaf", "assay": "Test C postemergence", "type": "in vivo, Abutilon theophrasti", "in_short": "as §2"}, "corn": {"system": "corn", "assay": "Test A postemergence", "type": "in vivo, Zea mays", "conditions": "Zea mays, post-emergence, 240 h, 0 to 100 scale (0 no effect, 100 complete control), approx. 10 d", "in_short": "as §1"}, "velvetleaf [4]": {"system": "velvetleaf", "assay": "Test C preemergence", "type": "in vivo, Abutilon theophrasti", "conditions": "for Velvetleaf plant response rating (0 to 100): Preemergence, visual rating after 13 to 15 d", "in_short": "as §2"}, "ducksalad": {"system": "ducksalad", "assay": "Test B flooded paddy test", "type": "in vivo, Heteranthera limosa", "conditions": "Heteranthera limosa, 360 h, 125 g ai/ha, applied to paddy water at 2-leaf stage, visual rating after 13 to 15 d, scale 0 (no effect) to 100 (complete control), read-out: Plant response rating, Ducksalad, Flood", "in_short": "as §3"}, "foxtail, giant": {"system": "foxtail, giant", "assay": "Test A preemergence", "type": "in vivo, Setaria faberii", "conditions": "Setaria faberi, pre-emergence, 240 h, 0 to 100 scale (0 no effect, 100 complete control), read-out: Plant response rating, Foxtail, Giant", "in_short": "as §1"}},
  "data": [
    {"smiles": "CCOc1nc(-c2ccc(F)cc2)nn1Cc1ccnc(C(F)(F)F)c1", "note": "[Compound 8, 4-[[5-ethoxy-3-(4-fluorophenyl)-1H-1,2,4-triazol-1-yl]methyl]-2-(trifluoromethyl)pyridine]", "values": [
      {"measurement": "pest or weed control at 125 g/ha", "setting": "barnyardgrass [1]; 125 g ai/ha", "value": 100, "unit": "%"},
      {"measurement": "pest or weed control at 500 g/ha", "setting": "barnyardgrass [1]; 500 g ai/ha, approx. 10 d", "value": 100, "unit": "%"},
      {"measurement": "pest or weed control at 125 g/ha", "setting": "barnyardgrass [2]; 125 g ai/ha", "value": 100, "unit": "%"},
      {"measurement": "pest or weed control at 500 g/ha", "setting": "barnyardgrass [2]; 500 g ai/ha", "value": 100, "unit": "%"},
      {"measurement": "Plant response rating (scale of 0 to 100 where 0 is no effect and 100 is complete control)", "setting": "crabgrass, large; 31 g ai/ha", "value": 20},
      {"measurement": "Plant response rating (scale of 0 to 100 where 0 is no effect and 100 is complete control)", "setting": "crabgrass, large; 62 g ai/ha", "value": 35},
      {"measurement": "Plant response rating (scale of 0 to 100 where 0 is no effect and 100 is complete control)", "setting": "crabgrass, large; 125 g ai/ha", "value": 70},
      {"measurement": "Plant response rating (scale of 0 to 100 where 0 is no effect and 100 is complete control)", "setting": "crabgrass, large; 250 g ai/ha", "value": 85},
      {"measurement": "plant injury at 125 g/ha", "setting": "rice", "value": 50, "unit": "%"},
      {"measurement": "Plant response rating (scale of 0 to 100 where 0 is no effect and 100 is complete control)", "setting": "morningglory; 31 g ai/ha", "value": 85},
      {"measurement": "Plant response rating (scale of 0 to 100 where 0 is no effect and 100 is complete control)", "setting": "morningglory; 62 g ai/ha", "value": 98},
      {"measurement": "Plant response rating (scale of 0 to 100 where 0 is no effect and 100 is complete control)", "setting": "morningglory; 125 g ai/ha", "value": 80},
      {"measurement": "Plant response rating (scale of 0 to 100 where 0 is no effect and 100 is complete control)", "setting": "morningglory; 250 g ai/ha", "value": 100},
      {"measurement": "Plant response rating (scale of 0 to 100 where 0 is no effect and 100 is complete control)", "setting": "kochia; 31 g ai/ha", "value": 95},
      {"measurement": "Plant response rating (scale of 0 to 100 where 0 is no effect and 100 is complete control)", "setting": "kochia; 62 g ai/ha", "value": 95},
      {"measurement": "Plant response rating (scale of 0 to 100 where 0 is no effect and 100 is complete control)", "setting": "kochia; 125 g ai/ha", "value": 95},
      {"measurement": "Plant response rating (scale of 0 to 100 where 0 is no effect and 100 is complete control)", "setting": "kochia; 250 g ai/ha", "value": 95},
      {"measurement": "Plant response rating (scale of 0 to 100 where 0 is no effect and 100 is complete control)", "setting": "johnsongrass; 31 g ai/ha", "value": 5},
      {"measurement": "Plant response rating (scale of 0 to 100 where 0 is no effect and 100 is complete control)", "setting": "johnsongrass; 62 g ai/ha", "value": 35},
      {"measurement": "Plant response rating (scale of 0 to 100 where 0 is no effect and 100 is complete control)", "setting": "johnsongrass; 125 g ai/ha", "value": 30},
      {"measurement": "Plant response rating (scale of 0 to 100 where 0 is no effect and 100 is complete control)", "setting": "johnsongrass; 250 g ai/ha", "value": 40},
      {"measurement": "Plant response rating (scale of 0 to 100 where 0 is no effect and 100 is complete control)", "setting": "pigweed; 31 g ai/ha", "value": 95},
      {"measurement": "Plant response rating (scale of 0 to 100 where 0 is no effect and 100 is complete control)", "setting": "pigweed; 62 g ai/ha", "value": 95},
      {"measurement": "Plant response rating (scale of 0 to 100 where 0 is no effect and 100 is complete control)", "setting": "pigweed; 125 g ai/ha", "value": 98},
      {"measurement": "Plant response rating (scale of 0 to 100 where 0 is no effect and 100 is complete control)", "setting": "pigweed; 250 g ai/ha", "value": 98},
      {"measurement": "Plant response rating (scale of 0 to 100 where 0 is no effect and 100 is complete control)", "setting": "ragweed; 31 g ai/ha", "value": 45},
      {"measurement": "Plant response rating (scale of 0 to 100 where 0 is no effect and 100 is complete control)", "setting": "ragweed; 62 g ai/ha", "value": 50},
      {"measurement": "Plant response rating (scale of 0 to 100 where 0 is no effect and 100 is complete control)", "setting": "ragweed; 125 g ai/ha", "value": 70},
      {"measurement": "Plant response rating (scale of 0 to 100 where 0 is no effect and 100 is complete control)", "setting": "ragweed; 250 g ai/ha", "value": 80},
      {"measurement": "Plant response rating (scale of 0 to 100 where 0 is no effect and 100 is complete control)", "setting": "velvetleaf [3]; 31 g ai/ha", "value": 50},
      {"measurement": "Plant response rating (scale of 0 to 100 where 0 is no effect and 100 is complete control)", "setting": "velvetleaf [3]; 62 g ai/ha", "value": 70},
      {"measurement": "Plant response rating (scale of 0 to 100 where 0 is no effect and 100 is complete control)", "setting": "velvetleaf [3]; 125 g ai/ha", "value": 90},
      {"measurement": "Plant response rating (scale of 0 to 100 where 0 is no effect and 100 is complete control)", "setting": "velvetleaf [3]; 250 g ai/ha", "value": 90},
      {"measurement": "Corn plant response rating (crop injury, 0 = no effect, 100 = complete kill) at 125 g/ha", "setting": "corn; 125 g ai/ha", "value": 50, "unit": "%"},
      {"measurement": "Corn plant response rating (crop injury, 0 = no effect, 100 = complete kill) at 500 g/ha", "setting": "corn; 500 g ai/ha", "value": 90, "unit": "%"},
      {"measurement": "Velvetleaf plant response rating (0 to 100)", "setting": "velvetleaf [4]; 31 g ai/ha", "value": 70},
      {"measurement": "Velvetleaf plant response rating (0 to 100)", "setting": "velvetleaf [4]; 62 g ai/ha", "value": 85},
      {"measurement": "Plant response rating (scale of 0 to 100 where 0 is no effect and 100 is complete control)", "setting": "velvetleaf [4]; Velvetleaf, preemergence, 250 g ai/ha", "value": 100},
      {"measurement": "pest or weed control at 125 g/ha", "setting": "ducksalad", "value": 85, "unit": "%"},
      {"measurement": "pest or weed control at 125 g/ha", "setting": "foxtail, giant; 125 g ai/ha", "value": 100, "unit": "%"},
      {"measurement": "pest or weed control at 500 g/ha", "setting": "foxtail, giant; 500 g ai/ha, approx. 10 d", "value": 100, "unit": "%"}
    ]}
  ]
}
